According to publication PMC9408872, “Harmicens, Novel Harmine and Ferrocene Hybrids: Design, Synthesis and Biological Activity” (International Journal of Molecular Sciences, 2022):

Legend:
[1] = system: HCT116 (colorectal carcinoma); assay: MTT cytotoxicity assay, HCT116; assay type: cell-based, human; conditions: for IC50: 72 h, MTT, mean ± SD, read-out: IC50 HCT116; for SI (HCT116): selectivity index: ratio of IC50 Hek293T to IC50 HCT116
Method: (§1) The parent compound harmine, as well as the reference drug 5-fluorouracil, were used as positive controls.
(§2) The experiments were carried out on five human cell lines purchased from American Type Culture Collection (ATCC): HepG2 (hepatocellular carcinoma; ATCC® HB-8065™), SW620 (colorectal adenocarcinoma; ATCC® CCL-227™), HCT116 (colorectal carcinoma; ATCC® CCL-247™), MCF-7 (breast adenocarcinoma; ATCC® HTB-22™), and Hek293T (embryonic kidney cells; ATCC® CRL-3216™). All cell lines were cultured as monolayers and maintained in Dulbecco’s Modified Eagle Medium (DMEM) (Capricorn Scientific, Ebsdorfergrund, Germany) supplemented with 10% fetal bovine serum (FBS) (Capricorn Scientific, Ebsdorfergrund, Germany), 100 U/mL penicillin, and 100 µg/mL streptomycin (Capricorn Scientific, Ebsdorfergrund, Germany) in a humidified atmosphere with 5% CO2 at 37 °C. Cells were seeded in 96-well plates (Corning, Durham, NC, USA) at 5000–7000 cells per well (depending on the cell-doubling time of a specific cell line) in 0.1 mL media and cultured for 24 h. The next day, the medium was aspirated, and cells were treated for 72 h. Only the compounds that led to more than a 50% reduction in mitochondrial metabolic activity at a concentration of 50 µM were selected for further analysis. The following concentrations of selected compounds were used: 25, 10, 5, and 1 µM. Working dilutions were freshly prepared on the day of the testing. A fresh growth medium was added to untreated control cells, which were defined as 100% viable. DMSO (0.13%) in DMEM was considered a negative control. 5-Fluorouracil (5-FU) and harmine were used as positive controls. At the end of treatment, the medium was removed, and cells were incubated for 1 h with 0.5 mg/mL MTT (Abcam, Cambridge, MA, USA) dissolved in serum-deprived DMEM. The MTT-containing medium was then removed, and 0.1 mL isopropanol was added per well to lyse cells and dissolve formazan. The optical density was measured at 570 nm using a microplate reader (VICTOR3, PerkinElmer, Waltham, MA, USA). Each test point was performed in triplicate. The absorbance was directly proportional to the cell viability. The IC50 values (concentration required to decrease viability by 50%) were calculated by using nonlinear regression on the sigmoidal dose–response plots and are expressed as mean ± SD.

[2] = system: SW620 (colorectal adenocarcinoma); assay: MTT cytotoxicity assay, SW620; assay type: cell-based, human; conditions: 72 h, MTT; mean ± SD; read-out: IC50 SW620
Method: as §1, §2

[3] = system: P. falciparum 3D7 (CQ-sensitive) erythrocytic stages; assay: In vitro drug sensitivity assay (HRP2-ELISA) against erythrocytic stages, Pf3D7; assay type: cell-based; conditions: for IC50: read-out: IC50 Pf3D7
Method: (§3) The in vitro activity of harmicens 20–37 against the erythrocytic stages of CQ-sensitive (Pf3D7) and multidrug-resistant (PfDd2) P. falciparum strains was evaluated following a previously described method (Table 1).
(§4) The antiplasmodial activity of harmicens 20–37 was evaluated against two strains of P. falciparum (3D7—CQ-sensitive, Dd2—multidrug-resistant) as previously described using the histidine-rich protein 2 (HRP2) assay. Briefly, 96-well plates were pre-coated with the tested compounds in a three-fold dilution before ring-stage parasites were added to complete the culture medium at a hematocrit of 1.5% and parasitemia of 0.05%. After three days of incubation at 37 °C, 5% CO2, and 5% oxygen, plates were frozen until HRP2-ELISA analysis. All compounds were evaluated in duplicate in at least two independent experiments. The IC50 was determined using a nonlinear regression analysis of log concentration–response curves using the drc-package v0.9.0 of R v2.6.1 (R Foundation, Vienna, Austria).

[4] = system: HepG2 (hepatocellular carcinoma); assay: MTT cytotoxicity assay, HepG2; assay type: cell-based, human; conditions: 72 h, MTT; mean ± SD; read-out: IC50 HepG2
Method: as §1, §2

HCT116 cells = assay: Cell cycle analysis (propidium iodide, flow cytometry); assay type: cell-based, human; conditions: 3 µM and 6 µM
Method: To that end, the cells were treated for 24 and 48 h with 3 µM and 6 µM concentrations of each compound, which corresponded to 0.5 × IC50 and IC50 values obtained in the MTT assay after 72 h, respectively. Afterward, the DNA was stained with propidium iodide and subjected to flow cytometry analysis.
HCT116 cells were seeded onto 6-well plates (2 × 10^5 cells per well). After 24 h, the tested compounds 28 and 36 were added at two concentrations—3 µM and 6 µM. After 24 h and 48 h, the attached cells were trypsinized, combined with floating cells, washed with phosphate buffer saline (PBS), fixed with 70% ethanol, and stored at −20 °C. Immediately before analysis, the cells were washed two times with PBS, treated with 0.1 μg/μL of RNAse A, and stained for 1 h on ice with 50 μg/mL of propidium iodide. The stained cells were then analyzed using a BD FACScalibur flow cytometer (20,000 counts were measured). The percentage of cells in each cell cycle phase was determined using FlowJo software (TreeStar Inc., San Francisco, CA, USA). The tests were performed in duplicate and repeated in two separate experiments. The average values from duplicates from one representative experiment ± SD are presented.

[5] = system: MCF-7 (breast adenocarcinoma); assay: cells; conditions: for IC50: read-out: IC50 MCF-7, 72 h, MTT, mean ± SD; for SI (MCF-7): selectivity index: ratio of IC50 Hek293T to IC50 MCF-7
Method: as §1, §2

[6] = system: P. falciparum Dd2 (multidrug-resistant) erythrocytic stages; assay: In vitro drug sensitivity assay (HRP2-ELISA) against erythrocytic stages, PfDd2; assay type: cell-based; conditions: multidrug-resistant strain; three days incubation; mean ± SD; read-out: IC50 PfDd2
Method: as §3, §4

[7] = system: Hek293T (embryonic kidney cells); assay: MTT cytotoxicity assay, Hek293T; assay type: cell-based, human; conditions: noncancer cell line; 72 h, MTT; mean ± SD; read-out: IC50 Hek293T
Method: as §1, §2

[8] = CQ-sensitive strain, three days incubation, mean ± SD

## Cc1nccc2c1[nH]c1cc(OCCNC(=O)C[c-]3cccc3)ccc12.[Fe+2].c1cc[cH-]c1 [Compound 36, N-(2-((1-Methyl-9H-pyrido[3,4-b]indol-7-yl)oxy)ethyl)-2-ferrocenylacetamide]
[1]
  IC50: 5.9 ± 1.3 µM
  SI (HCT116): 1.4
[2]
  IC50: 4.2 ± 0.3 µM
[3]; [8]
  IC50: 0.42 ± 0.02 µM
[4]
  IC50: 7.4 ± 0.5 µM
HCT116 cells
  effect on cell cycle distribution after 24 h: G1 phase arrest only at a higher concentration
[5]
  IC50: 4.5 ± 0.3 µM
  SI (MCF-7): 1.9
[6]
  IC50: 1.53 ± 0.06 µM
[7]
  IC50: 8.4 ± 0.3 µM

## COc1ccc2c3ccnc(C)c3n(CCNC(=O)[c-]3cccc3)c2c1.[Fe+2].c1cc[cH-]c1 [Compound 33, N-(2-(7-Methoxy-1-methyl-9H-pyrido[3,4-b]indol-9-yl)ethyl)ferrocenecarboxamide]
[1]
  IC50: 16.3 ± 3.2 µM
[2]
  IC50: > 50 µM
[3]; [8]
  IC50: 0.4 ± 0.18 µM
[4]
  IC50: > 50 µM
[5]
  IC50: 30.5 ± 13.2 µM
  SI (MCF-7): >1.7
[6]
  IC50: 2.04 ± 0.29 µM
[7]
  IC50: > 50 µM

## Cc1nccc2c1[nH]c1cc(OCc3cn(C[c-]4cccc4)nn3)ccc12.[Fe+2].c1cc[cH-]c1 [Compound 28, 7-((1-(Ferrocenylmethyl)-1H-1,2,3-triazol-4-yl)methoxy)-1-methyl-9H-pyrido[3,4-b]indole]
[1]
  IC50: 7.4 ± 0.4 µM
  SI (HCT116): >6.8
[2]
  IC50: > 50 µM
[3]; 28 (methylene bridge) versus its counterpart 23
  decrease in antiplasmodial activity against Pf3D7 relative to harmicene 23: 370 fold
[3]; [8]
  IC50 Pf3D7: inactive at the highest concentration tested
  IC50: > 56 µM
[4]
  IC50: > 50 µM
HCT116 cells
  effect on cell cycle distribution after 24 h: statistically significant increase in cells in the G1 phase at both tested concentrations
HCT116 cells; 48 h
  effect on cell cycle distribution after 48 h: pronounced G2/M cell cycle arrest
[5]
  IC50: > 50 µM
  SI (MCF-7): >1
[6]
  IC50: > 56 µM
[7]
  IC50: > 50 µM

## 9-((1-(Ferocenylmethyl)-1H-1,2,3-triazol-4-yl)methyl)-7-methoxy-1-methyl-9H-pyrido[3,4-b]indole [Compound 29]
[1]
  IC50: 14.6 ± 3.7 µM
  SI (HCT116): >3.4
[2]
  IC50: > 50 µM
[3]; [8]
  IC50: 2.12 ± 0.81 µM
[4]
  IC50: > 50 µM
[5]
  IC50: > 50 µM
  SI (MCF-7): >1
[6]
  IC50: 2.91 ± 0.05 µM
[7]
  IC50: > 50 µM

## O=C(C[c-]1cccc1)NCc1nccc2c1[nH]c1ccccc12.[Fe+2].c1cc[cH-]c1 [Compound 34, N-((9H-Pyrido[3,4-b]indol-1-yl)methyl)-2-ferrocenylacetamide]
[1]
  IC50: > 50 µM
  SI (HCT116): >1
[2]
  IC50: > 50 µM
[3]; [8]
  IC50: 1.34 ± 0.09 µM
[4]
  IC50: > 50 µM
[5]
  IC50: > 50 µM
  SI (MCF-7): >1
[6]
  IC50: 1.11 ± 0.01 µM
[7]
  IC50: > 50 µM

## O=C(NCc1nccc2c1[nH]c1ccccc12)[c-]1cccc1.[Fe+2].c1cc[cH-]c1 [Compound 30, N-((9H-Pyrido[3,4-b]indol-1-yl)methyl)ferrocenecarboxamide]
[1]
  IC50: 16.8 ± 0.9 µM
  SI (HCT116): >3
[2]
  IC50: 45.1 ± 3.7 µM
[3]; [8]
  IC50: > 56 µM
[4]
  IC50: > 50 µM
[5]
  activity against MCF-7 relative to 5-FU (fold stronger): 3–6.5 fold
  IC50: 8.5 ± 1.5 µM
  SI (MCF-7): >5.9
[6]
  IC50: 14 ± 1.95 µM
[7]
  IC50: > 50 µM
